Source: patent publication US20090304813A1, “VIRUCIDAL COMPOSITIONS AND USES” (priority 2006, published 2009)

Experiments:
[1] = Tox controls of the oral treatment study in mice (Table 3); details: 75 mg/kg/day p.o., bid × 5 beg −4 h; initial weight vs 18 h after final treatment
[2] = system: Influenza A/Duck/MN/1525/81 (H5N1); set-up: species or system BALB/c mice; details: mouse, in vivo

With `NC(=O)c1ncn([C@@H]2O[C@H](CO)[C@@H](O)[C@H]2O)n1` [Ribavirin] the “Tox Controls Mean Host Weight Change” value [1] was -0.8 g.

In the case of `CCOC(=O)C1=C[C@@H](OC(CC)CC)[C@H](NC(C)=O)[C@@H](N)C1` [Tamiflu ™, oseltamivir phosphate], the “Number of surviving mice per group at day 19” value [2] is reported as 10/10 [100%] and the “surviving mice per group at day 19, percent” value [2] is reported as 10/10 [100%].
